{"source": "PubChem BioAssay AID256", "about": "(DTP/NCI, 2004)", "test_system": "CD2F1 mice, L1210 leukemia ip, survival T/C", "experiment": "NCI In Vivo Anticancer Drug Screen. Data for tumor model L1210 Leukemia (intraperitoneal) in CD2F1 (CDF1) mice", "conditions": "higher = longer survival", "in_short": "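Each value reflects a quotient of treated over vehicle control outcomes in mice with a transplanted tumor.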", "key": {"[1]": {"conditions": "endpoint: mean survival time, dose: 100.0 mg/kg/injection, schedule: Q04DX003 (ip), vehicle: saline with Tween-80"}, "[2]": {"conditions": "endpoint: mean survival time, dose: 100.0 mg/kg/injection, schedule: Q01DX009 (ip), vehicle: saline with Tween-80"}, "[3]": {"conditions": "endpoint: mean survival time, dose: 200.0 mg/kg/injection, schedule: Q01DX009 (ip), vehicle: saline with Tween-80"}, "[4]": {"conditions": "endpoint: mean survival time, dose: 200.0 mg/kg/injection, schedule: Q04DX003 (ip), vehicle: saline with Tween-80"}, "[5]": {"conditions": "endpoint: mean survival time, dose: 400.0 mg/kg/injection, schedule: Q01DX009 (ip), vehicle: saline with Tween-80"}, "[6]": {"conditions": "endpoint: mean survival time, dose: 400.0 mg/kg/injection, schedule: Q04DX003 (ip), vehicle: saline with Tween-80"}, "[7]": {"conditions": "endpoint: mean survival time, dose: 100.0 mg/kg/injection, schedule: Q01DX001 (ip), vehicle: saline with Tween-80"}, "[8]": {"conditions": "endpoint: mean survival time, dose: 200.0 mg/kg/injection, schedule: Q01DX001 (ip), vehicle: saline with Tween-80"}, "[9]": {"conditions": "endpoint: mean survival time, dose: 400.0 mg/kg/injection, schedule: Q01DX001 (ip), vehicle: saline with Tween-80"}}, "note": "Toxic doses and inconclusive results are not listed."}
{"smiles": "CCCN1CCN(c2ccccc2)CC1", "values": [{"measurement": "T/C", "setting": "endpoint: mean survival time, dose: 25.0 mg/kg/injection, schedule: Q01DX009 (ip), vehicle: saline", "value": "103 % of control"}, {"measurement": "T/C", "setting": "endpoint: mean survival time, dose: 50.0 mg/kg/injection, schedule: Q01DX009 (ip), vehicle: saline", "value": "103 % of control"}, {"measurement": "T/C", "setting": "endpoint: mean survival time, dose: 100.0 mg/kg/injection, schedule: Q01DX009 (ip), vehicle: saline", "value": "96 % of control"}, {"measurement": "T/C", "setting": "[1]", "value": "103 % of control"}]}
{"smiles": "CCCCC(O)C(=O)O", "note": "(stereo not drawn)", "values": [{"measurement": "T/C", "setting": "endpoint: mean survival time, dose: 75.0 mg/kg/injection, schedule: Q01DX001 (ip), vehicle: saline", "value": "94 % of control"}, {"measurement": "T/C", "setting": "endpoint: mean survival time, dose: 150.0 mg/kg/injection, schedule: Q01DX001 (ip), vehicle: saline", "value": "96 % of control"}]}
{"smiles": "Cc1ccc2nc(-c3ccc4nc(-c5ccc(N)cc5)sc4c3)sc2c1", "values": [{"measurement": "T/C", "setting": "endpoint: mean survival time, dose: 50.0 mg/kg/injection, schedule: Q01DX009 (ip), vehicle: saline with Tween-80", "value": "94 % of control"}, {"measurement": "T/C", "setting": "[2]", "value": "97 % of control"}, {"measurement": "T/C", "setting": "[3]", "value": "94 % of control"}]}
{"smiles": "COc1cc(C=Nc2cc(Br)cc(Br)c2)ccc1N(CCCl)CCCl", "values": [{"measurement": "T/C", "setting": "endpoint: mean survival time, dose: 200.0 mg/kg/injection, schedule: Q01DX001 (ip), vehicle: other", "value": "150 % of control"}]}
{"smiles": "C=C[CH2][Sn]([c]1ccccc1)([c]1ccccc1)[c]1ccccc1", "values": [{"measurement": "T/C", "setting": "endpoint: mean survival time, dose: 50.0 mg/kg/injection, schedule: Q04DX003 (ip), vehicle: saline with Tween-80", "value": "87 % of control"}, {"measurement": "T/C", "setting": "[1]", "value": "91 % of control"}]}
{"smiles": "CCCCCCCCCCCCCC(=O)N1CCOCC1", "values": [{"measurement": "T/C", "setting": "[2]", "value": "96 % of control"}, {"measurement": "T/C", "setting": "[1]", "value": "97 % of control"}, {"measurement": "T/C", "setting": "[3]", "value": "96 % of control"}, {"measurement": "T/C", "setting": "[4]", "value": "95 % of control"}, {"measurement": "T/C", "setting": "[5]", "value": "100 % of control"}, {"measurement": "T/C", "setting": "[6]", "value": "97 % of control"}]}
{"smiles": "CCCC(=O)Nc1ccccc1", "values": [{"measurement": "T/C", "setting": "[7]", "value": "96 % of control"}, {"measurement": "T/C", "setting": "[2]", "value": "102 % of control"}, {"measurement": "T/C", "setting": "[8]", "value": "95 % of control"}, {"measurement": "T/C", "setting": "[3]", "value": "102 % of control"}, {"measurement": "T/C", "setting": "[9]", "value": "98 % of control"}, {"measurement": "T/C", "setting": "[5]", "value": "112 % of control"}]}
{"smiles": "CCCCOCN(COCCCC)c1ccccc1", "values": [{"measurement": "T/C", "setting": "[7]", "value": "109 % of control"}, {"measurement": "T/C", "setting": "[8]", "value": "103 % of control"}, {"measurement": "T/C", "setting": "[9]", "value": "97 % of control"}]}
{"smiles": "C(#Cc1ccccc1)c1ccccc1.Cc1ccc([PH+](c2ccccc2)c2ccccc2)cc1.Cc1ccc([PH+](c2ccccc2)c2ccccc2)cc1.[Pt]", "values": [{"measurement": "T/C", "setting": "endpoint: median survival time, dose: 3.13 mg/kg/injection, schedule: Q04DX003 (ip), vehicle: distilled water + Tween-80", "value": "100 % of control"}, {"measurement": "T/C", "setting": "endpoint: median survival time, dose: 6.25 mg/kg/injection, schedule: Q04DX003 (ip), vehicle: distilled water + Tween-80", "value": "101 % of control"}, {"measurement": "T/C", "setting": "endpoint: median survival time, dose: 12.5 mg/kg/injection, schedule: Q04DX003 (ip), vehicle: distilled water + Tween-80", "value": "105 % of control"}, {"measurement": "T/C", "setting": "endpoint: median survival time, dose: 25.0 mg/kg/injection, schedule: Q04DX003 (ip), vehicle: distilled water + Tween-80", "value": "89 % of control"}, {"measurement": "T/C", "setting": "endpoint: median survival time, dose: 50.0 mg/kg/injection, schedule: Q04DX003 (ip), vehicle: distilled water + Tween-80", "value": "90 % of control"}, {"measurement": "T/C", "setting": "endpoint: median survival time, dose: 100.0 mg/kg/injection, schedule: Q04DX003 (ip), vehicle: distilled water + Tween-80", "value": "94 % of control"}]}
{"smiles": "NC(N)=NCCCC(NC(c1ccccc1)(c1ccccc1)c1ccccc1)C(=O)O", "note": "(stereo not drawn)", "values": [{"measurement": "T/C", "setting": "endpoint: mean survival time, dose: 100.0 mg/kg/injection, schedule: Q01DX001 (ip), vehicle: saline", "value": "88 % of control"}, {"measurement": "T/C", "setting": "endpoint: mean survival time, dose: 200.0 mg/kg/injection, schedule: Q01DX001 (ip), vehicle: saline", "value": "92 % of control"}, {"measurement": "T/C", "setting": "endpoint: mean survival time, dose: 400.0 mg/kg/injection, schedule: Q01DX001 (ip), vehicle: saline", "value": "98 % of control"}]}
{"smiles": "COc1ccc(CC2c3cc(OC)c(OC)cc3CCN2C(C)=O)cc1", "note": "(stereo not drawn)", "values": [{"measurement": "T/C", "setting": "[1]", "value": "101 % of control"}, {"measurement": "T/C", "setting": "[4]", "value": "100 % of control"}, {"measurement": "T/C", "setting": "[6]", "value": "100 % of control"}]}
{"smiles": "O=C(O)CCCCCCCCCCCCCCCCCCCCC(=O)O", "values": [{"measurement": "T/C", "setting": "[1]", "value": "87 % of control"}, {"measurement": "T/C", "setting": "[4]", "value": "102 % of control"}, {"measurement": "T/C", "setting": "[6]", "value": "87 % of control"}]}
{"smiles": "Cc1cc(O)c2c(c1O)C(=O)c1cccc(O)c1C2=O", "values": [{"measurement": "T/C", "setting": "endpoint: mean survival time, dose: 0.75 mg/kg/injection, schedule: Q01DX009 (ip), vehicle: Klucel (hydroxypropylcellulose) (HPC)", "value": "103 % of control"}, {"measurement": "T/C", "setting": "endpoint: mean survival time, dose: 1.5 mg/kg/injection, schedule: Q01DX009 (ip), vehicle: Klucel (hydroxypropylcellulose) (HPC)", "value": "98 % of control"}, {"measurement": "T/C", "setting": "endpoint: mean survival time, dose: 3.0 mg/kg/injection, schedule: Q01DX009 (ip), vehicle: Klucel (hydroxypropylcellulose) (HPC)", "value": "101 % of control"}, {"measurement": "T/C", "setting": "endpoint: mean survival time, dose: 6.0 mg/kg/injection, schedule: Q01DX009 (ip), vehicle: Klucel (hydroxypropylcellulose) (HPC)", "value": "113 % of control"}]}
{"smiles": "CN=C(NC)c1ccc(NC(=O)c2ccc(C(=O)Nc3ccc(C(=NC)NC)cc3)c(N)c2)cc1", "values": [{"measurement": "T/C", "setting": "endpoint: mean survival time, dose: 2.25 mg/kg/injection, schedule: Q01DX Z (ip), vehicle: water", "value": "176 % of control"}, {"measurement": "T/C", "setting": "endpoint: mean survival time, dose: 4.5 mg/kg/injection, schedule: Q01DX Z (ip), vehicle: water", "value": "176 % of control"}]}
{"smiles": "COC(=O)Nc1cccc(-c2nc3ccc(NC(=O)OC)cc3c(=O)n2-c2ccccc2)c1", "values": [{"measurement": "T/C", "setting": "endpoint: mean survival time, dose: 50.0 mg/kg/injection, schedule: Q01DX009 (ip), vehicle: Klucel (hydroxypropylcellulose) (HPC)", "value": "114 % of control"}, {"measurement": "T/C", "setting": "endpoint: mean survival time, dose: 100.0 mg/kg/injection, schedule: Q01DX009 (ip), vehicle: Klucel (hydroxypropylcellulose) (HPC)", "value": "91 % of control"}, {"measurement": "T/C", "setting": "endpoint: median survival time, dose: 50.0 mg/kg/injection, schedule: Q04DX003 (ip), vehicle: saline with Tween-80", "value": "101 % of control"}, {"measurement": "T/C", "setting": "endpoint: median survival time, dose: 100.0 mg/kg/injection, schedule: Q04DX003 (ip), vehicle: saline with Tween-80", "value": "103 % of control"}, {"measurement": "T/C", "setting": "endpoint: median survival time, dose: 200.0 mg/kg/injection, schedule: Q04DX003 (ip), vehicle: saline with Tween-80", "value": "100 % of control"}]}
